The source made the active and inactive calls.
Legend:
[1] = tested on: Escherichia coli; assay: microbe, parasite or virus in culture
[2] = target: Intestinal-type alkaline phosphatase (Mus musculus, UniProt P24822); assay: PubChem AID 488874; assay type: functional
[3] = target: T1, Intestinal-type alkaline phosphatase (Homo sapiens, UniProt P09923); assay: human intestinal alkaline phosphatase activators, dose response, biochemical, luminescence, uHTS hits (AID 463120); assay type: functional
T1 sequence (P09923 whole entry): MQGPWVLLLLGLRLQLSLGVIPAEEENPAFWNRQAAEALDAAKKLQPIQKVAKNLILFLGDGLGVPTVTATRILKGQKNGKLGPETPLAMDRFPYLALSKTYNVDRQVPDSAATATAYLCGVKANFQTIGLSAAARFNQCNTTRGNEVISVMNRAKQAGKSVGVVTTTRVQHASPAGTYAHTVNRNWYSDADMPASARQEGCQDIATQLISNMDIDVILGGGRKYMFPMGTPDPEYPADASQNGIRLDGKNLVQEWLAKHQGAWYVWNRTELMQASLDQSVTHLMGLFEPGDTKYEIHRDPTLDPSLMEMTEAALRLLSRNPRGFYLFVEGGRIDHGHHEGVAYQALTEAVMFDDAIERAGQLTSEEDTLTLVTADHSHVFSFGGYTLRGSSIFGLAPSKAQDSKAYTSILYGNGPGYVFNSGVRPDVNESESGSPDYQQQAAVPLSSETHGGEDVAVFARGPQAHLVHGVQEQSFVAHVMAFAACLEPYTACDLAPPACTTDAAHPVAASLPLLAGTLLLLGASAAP

[4] = target: T1, Intestinal-type alkaline phosphatase; assay: activation of human intestinal alkaline phosphatase – biochemical, luminescent, uHTS hits, set 2, dose response (AID 488817); assay type: functional;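 further: potency of activators that raise enzyme activity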
[5] = target: T2, Alkaline phosphatase, tissue-nonspecific isozyme (Homo sapiens, UniProt P05186); assay: activation of tissue-nonspecific alkaline phosphatase – biochemical, TNAP isozyme, human IAP uHTS hits, selectivity assay for human IAP activator project, dose response (AID 488886); assay type: functional;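 further: potency of compounds raising TNAP activity as a selectivity check on IAP activators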
T2 sequence (P05186 whole entry): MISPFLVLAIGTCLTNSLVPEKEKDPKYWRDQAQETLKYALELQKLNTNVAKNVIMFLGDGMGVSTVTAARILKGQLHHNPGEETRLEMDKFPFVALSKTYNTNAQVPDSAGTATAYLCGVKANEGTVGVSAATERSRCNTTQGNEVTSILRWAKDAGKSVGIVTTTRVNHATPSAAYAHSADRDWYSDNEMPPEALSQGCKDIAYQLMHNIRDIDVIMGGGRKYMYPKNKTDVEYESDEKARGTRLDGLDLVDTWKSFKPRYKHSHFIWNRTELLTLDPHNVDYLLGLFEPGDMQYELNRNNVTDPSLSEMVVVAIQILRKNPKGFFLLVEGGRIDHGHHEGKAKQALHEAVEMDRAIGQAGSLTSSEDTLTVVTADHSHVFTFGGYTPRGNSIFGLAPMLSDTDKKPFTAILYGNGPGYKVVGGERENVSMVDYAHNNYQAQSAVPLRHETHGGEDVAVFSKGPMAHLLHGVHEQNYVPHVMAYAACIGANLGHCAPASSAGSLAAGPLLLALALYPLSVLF

[6] = decrease of insulin promoter-GFP reporter – imaging, high-content screening, mouse beta cells (AID 1628); assay type: functional; conditions: MIN6
[7] = MIN6 cell viability loss – mouse insulinoma, cytotoxicity control, dose response (AID 2122); assay type: functional;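 further: confirmatory high-throughput counterscreen run to flag cytotoxic compounds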
[8] = Trypanosoma cruzi growth suppression in host cells – NIH3T3 host cells, beta-gal luminescence, confirmation (AID 2044); assay type: functional, cell-based;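 further: intracellular parasites grown in NIH/3T3 mouse fibroblasts as host cells; luminescent beta-galactosidase reporter signal from transgenic T. cruzi replicating inside host cells; inhibitors lower the luminescence signal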
[9] = NIH3T3 cell viability loss – ATP luminescence, mouse fibroblasts, counter-screen, dose response (AID 2010); assay type: functional, cell-based;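 further: cells exposed to compound for about 90 hours before reading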
[10] = tested on: Vero; assay: cells; assay type: functional; conditions: Chlorocebus sabaeus
[11] = target: T3, DNA repair and recombination protein RAD54-like (Homo sapiens, UniProt Q92698); assay: RAD54 Holliday junction migration blockers – biochemical, fluorescence, cherry-picked samples, dose series, confirmation (AID 651657); assay type: functional
T3 sequence (Q92698 whole entry): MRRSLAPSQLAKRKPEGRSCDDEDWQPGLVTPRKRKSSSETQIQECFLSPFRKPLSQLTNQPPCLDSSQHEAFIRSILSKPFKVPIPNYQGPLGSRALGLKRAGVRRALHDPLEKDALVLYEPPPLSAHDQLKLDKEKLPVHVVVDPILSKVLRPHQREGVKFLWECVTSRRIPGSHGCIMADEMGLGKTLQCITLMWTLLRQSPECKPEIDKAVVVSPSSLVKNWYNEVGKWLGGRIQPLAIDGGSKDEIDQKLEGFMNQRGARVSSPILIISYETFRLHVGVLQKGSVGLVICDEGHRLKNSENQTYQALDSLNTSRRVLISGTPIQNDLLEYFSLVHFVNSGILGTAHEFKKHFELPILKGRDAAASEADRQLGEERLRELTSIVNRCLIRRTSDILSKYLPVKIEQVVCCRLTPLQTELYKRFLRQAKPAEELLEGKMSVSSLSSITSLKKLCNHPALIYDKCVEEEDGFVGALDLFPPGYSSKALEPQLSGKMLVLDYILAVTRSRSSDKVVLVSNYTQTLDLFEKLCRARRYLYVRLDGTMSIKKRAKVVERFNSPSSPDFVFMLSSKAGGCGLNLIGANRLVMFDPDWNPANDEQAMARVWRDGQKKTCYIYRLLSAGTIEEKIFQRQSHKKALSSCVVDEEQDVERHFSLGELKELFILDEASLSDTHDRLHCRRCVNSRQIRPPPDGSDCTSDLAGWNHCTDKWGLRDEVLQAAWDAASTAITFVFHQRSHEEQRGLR

[12] = target: Cytochrome P450 2C9 (Homo sapiens, UniProt P11712)
Sequence of Cytochrome P450 2C9 (P11712 whole entry): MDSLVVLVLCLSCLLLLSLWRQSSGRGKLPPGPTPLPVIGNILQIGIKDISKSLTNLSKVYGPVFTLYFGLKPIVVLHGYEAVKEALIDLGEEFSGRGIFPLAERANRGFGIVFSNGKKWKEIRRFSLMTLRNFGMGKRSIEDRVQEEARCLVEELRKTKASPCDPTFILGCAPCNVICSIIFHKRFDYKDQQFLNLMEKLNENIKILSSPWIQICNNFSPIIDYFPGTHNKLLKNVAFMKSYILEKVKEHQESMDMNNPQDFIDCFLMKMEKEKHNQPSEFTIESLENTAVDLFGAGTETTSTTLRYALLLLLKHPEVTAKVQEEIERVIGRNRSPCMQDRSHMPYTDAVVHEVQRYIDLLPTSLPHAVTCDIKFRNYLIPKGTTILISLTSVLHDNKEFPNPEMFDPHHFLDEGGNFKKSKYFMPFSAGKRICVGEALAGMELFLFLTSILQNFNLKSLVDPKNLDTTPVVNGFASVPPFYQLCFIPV

[13] = target: Cytochrome P450 3A4 (Homo sapiens, UniProt P08684);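 further: CYP3A4 tested as one member of a cytochrome P450 panel screen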
Sequence of Cytochrome P450 3A4 (P08684 whole entry): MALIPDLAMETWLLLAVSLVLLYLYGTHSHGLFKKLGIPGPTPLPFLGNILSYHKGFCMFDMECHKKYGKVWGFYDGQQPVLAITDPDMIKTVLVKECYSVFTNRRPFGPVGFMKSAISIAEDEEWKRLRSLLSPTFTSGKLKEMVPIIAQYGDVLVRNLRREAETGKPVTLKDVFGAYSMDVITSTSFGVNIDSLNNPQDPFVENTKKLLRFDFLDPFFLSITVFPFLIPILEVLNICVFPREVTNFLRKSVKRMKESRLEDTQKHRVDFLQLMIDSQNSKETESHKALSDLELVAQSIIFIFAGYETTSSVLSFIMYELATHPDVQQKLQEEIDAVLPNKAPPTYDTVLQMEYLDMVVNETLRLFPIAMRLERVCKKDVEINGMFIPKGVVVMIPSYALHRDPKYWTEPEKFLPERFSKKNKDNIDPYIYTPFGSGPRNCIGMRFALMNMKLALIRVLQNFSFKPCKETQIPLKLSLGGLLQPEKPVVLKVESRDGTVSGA

[14] = target: T4, Microphthalmia-associated transcription factor (Homo sapiens, UniProt O75030); assay: reducers of TRPM1 reporter luminescence, concentration series – cell-based, SK-MEL-5, cherry-picked, set 3, MITF inhibitor project, dose response (AID 493073); assay type: functional;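 further: SK-MEL-5 melanoma cells with luciferase driven by the MITF target TRPM1 promoter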
T4 sequence (O75030 whole entry): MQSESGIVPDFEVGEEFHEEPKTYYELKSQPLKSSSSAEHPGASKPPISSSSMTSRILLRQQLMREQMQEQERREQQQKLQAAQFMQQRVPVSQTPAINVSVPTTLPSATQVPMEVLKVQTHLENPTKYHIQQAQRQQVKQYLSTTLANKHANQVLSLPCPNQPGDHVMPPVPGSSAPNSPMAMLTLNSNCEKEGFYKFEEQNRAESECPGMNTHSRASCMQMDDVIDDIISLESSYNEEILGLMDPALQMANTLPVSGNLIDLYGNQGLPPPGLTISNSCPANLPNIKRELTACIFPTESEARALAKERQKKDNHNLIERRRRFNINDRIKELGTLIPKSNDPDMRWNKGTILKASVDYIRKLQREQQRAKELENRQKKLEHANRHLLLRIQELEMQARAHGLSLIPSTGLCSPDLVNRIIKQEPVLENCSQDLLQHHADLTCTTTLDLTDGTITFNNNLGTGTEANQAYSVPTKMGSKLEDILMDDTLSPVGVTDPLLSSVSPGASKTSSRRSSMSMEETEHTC

[15] = tested on: A-375; assay: proliferation inhibition in MITF-low A375 cells – cell-based, cherry-pick samples, set 2, counter-screen for MITF modulator project, dose response (AID 540335); assay type: functional; conditions: Homo sapiens
[16] = target: Genome polyprotein (Hepatitis C virus, UniProt Q2Q167); assay: disruption of hepatitis C core self-association – biochemical, TR-FRET, dose response (AID 2159); design: species or system Hepacivirus hominis;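 further: blocks dimerization of HCV core protein measured by TR-FRET between tagged core106 pairs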
Sequence of Genome polyprotein (Q2Q167 whole entry): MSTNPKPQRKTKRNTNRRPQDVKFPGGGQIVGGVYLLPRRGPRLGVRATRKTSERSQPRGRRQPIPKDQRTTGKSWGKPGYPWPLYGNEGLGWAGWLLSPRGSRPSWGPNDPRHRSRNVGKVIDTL

[17] = target: T5, SUMO-activating enzyme (Homo sapiens, UniProt Q9UBT2); assay: blockers of UBC9-mediated SUMO conjugation – biochemical, AlphaScreen, SUMOylation inhibitor project, confirmation (AID 2018); assay type: functional
T5 sequence (Q9UBE0 whole entry): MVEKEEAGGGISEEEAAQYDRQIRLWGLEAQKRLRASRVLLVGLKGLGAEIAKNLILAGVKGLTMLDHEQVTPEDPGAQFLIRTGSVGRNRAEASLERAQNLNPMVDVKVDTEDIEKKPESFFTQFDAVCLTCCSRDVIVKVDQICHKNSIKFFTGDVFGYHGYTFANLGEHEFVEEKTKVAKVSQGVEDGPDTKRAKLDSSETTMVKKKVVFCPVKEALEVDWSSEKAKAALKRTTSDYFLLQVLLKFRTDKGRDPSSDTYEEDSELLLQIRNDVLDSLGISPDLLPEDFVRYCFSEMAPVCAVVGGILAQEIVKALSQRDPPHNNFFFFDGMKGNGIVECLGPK
T5 sequence (Q9UBT2 whole entry): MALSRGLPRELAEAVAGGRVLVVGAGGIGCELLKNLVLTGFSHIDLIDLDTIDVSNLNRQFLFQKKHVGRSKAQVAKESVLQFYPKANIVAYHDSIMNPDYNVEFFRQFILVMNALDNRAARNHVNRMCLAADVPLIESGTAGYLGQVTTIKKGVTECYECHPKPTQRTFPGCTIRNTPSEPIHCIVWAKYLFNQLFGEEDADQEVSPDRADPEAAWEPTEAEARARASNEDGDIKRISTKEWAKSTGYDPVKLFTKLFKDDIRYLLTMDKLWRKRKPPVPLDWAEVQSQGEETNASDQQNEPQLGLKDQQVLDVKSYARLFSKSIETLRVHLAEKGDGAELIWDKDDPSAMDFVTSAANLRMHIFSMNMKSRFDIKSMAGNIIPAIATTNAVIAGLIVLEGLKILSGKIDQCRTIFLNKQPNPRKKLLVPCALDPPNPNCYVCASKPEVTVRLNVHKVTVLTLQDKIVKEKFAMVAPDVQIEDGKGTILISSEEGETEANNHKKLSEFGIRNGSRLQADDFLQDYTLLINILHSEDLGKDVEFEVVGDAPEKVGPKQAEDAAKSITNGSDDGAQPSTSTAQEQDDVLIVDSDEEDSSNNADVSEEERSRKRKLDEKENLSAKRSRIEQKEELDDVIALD

[18] = target: T5, SUMO-activating enzyme; assay: blockers of SAE1/SAE2–UBC9 SUMO transfer – biochemical, HTRF, uHTS, primary screen (AID 2006); assay type: protein-complex assay
[19] = target: Induced myeloid leukemia cell differentiation protein Mcl-1 (Homo sapiens, UniProt Q07820); assay type: functional
Sequence of Induced myeloid leukemia cell differentiation protein Mcl-1 (Q07820 whole entry): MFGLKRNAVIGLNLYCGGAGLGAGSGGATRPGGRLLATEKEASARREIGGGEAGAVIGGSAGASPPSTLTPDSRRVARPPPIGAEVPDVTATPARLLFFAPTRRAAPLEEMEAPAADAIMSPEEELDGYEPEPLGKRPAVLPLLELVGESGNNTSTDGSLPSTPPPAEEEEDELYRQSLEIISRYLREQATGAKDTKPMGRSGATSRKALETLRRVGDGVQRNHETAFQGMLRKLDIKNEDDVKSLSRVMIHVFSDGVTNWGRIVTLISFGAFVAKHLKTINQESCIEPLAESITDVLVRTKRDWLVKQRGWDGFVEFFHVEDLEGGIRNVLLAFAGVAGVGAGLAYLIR

[20] = target: Eukaryotic translation initiation factor 4E (Mus musculus, UniProt P63073); assay: blockers of eIF4G binding by eIF4E – biochemical, TR-FRET, dose response (AID 855); assay type: functional;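 further: potency for disrupting eIF4E binding to eIF4GI seen as loss of FRET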
Sequence of Eukaryotic translation initiation factor 4E (P63073 whole entry): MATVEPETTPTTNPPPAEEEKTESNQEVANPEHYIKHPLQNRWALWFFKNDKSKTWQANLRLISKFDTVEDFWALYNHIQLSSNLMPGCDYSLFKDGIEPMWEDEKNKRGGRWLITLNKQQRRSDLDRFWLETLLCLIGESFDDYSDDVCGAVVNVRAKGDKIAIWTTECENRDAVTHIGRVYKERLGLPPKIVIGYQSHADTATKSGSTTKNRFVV

Sequence of Intestinal-type alkaline phosphatase (Mus musculus, UniProt P24822) (P24822 whole entry): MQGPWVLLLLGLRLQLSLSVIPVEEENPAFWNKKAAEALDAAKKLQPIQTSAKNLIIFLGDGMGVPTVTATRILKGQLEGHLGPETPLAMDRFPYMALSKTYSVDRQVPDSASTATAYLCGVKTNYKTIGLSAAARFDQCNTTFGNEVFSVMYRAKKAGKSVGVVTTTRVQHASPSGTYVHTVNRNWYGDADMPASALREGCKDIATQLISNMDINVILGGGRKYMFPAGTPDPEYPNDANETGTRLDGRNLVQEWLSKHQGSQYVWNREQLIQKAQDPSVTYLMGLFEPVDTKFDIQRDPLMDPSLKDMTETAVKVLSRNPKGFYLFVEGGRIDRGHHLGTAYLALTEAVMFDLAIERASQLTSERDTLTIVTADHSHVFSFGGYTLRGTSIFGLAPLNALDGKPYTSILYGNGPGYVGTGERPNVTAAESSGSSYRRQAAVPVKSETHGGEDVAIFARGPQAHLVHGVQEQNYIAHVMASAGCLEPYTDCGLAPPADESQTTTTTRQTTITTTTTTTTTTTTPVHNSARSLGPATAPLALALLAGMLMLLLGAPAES

COc1ccc(OC)c(-n2c(SCC(=O)N3CCc4ccccc43)nc3c(c2=O)SCC3)c1
AC50 [1]: 71.1 µM (active)

OC(c1nc2cc(F)ccc2[nH]1)C(O)c1nc2cc(F)ccc2[nH]1 (stereo not given)
IC50 [2]: 58.5 µM (active) | EC50 [3]: 4.97 µM (active) | EC50 [4]: 9.13 µM (active) | EC50 [5]: 9.85 µM (active)

Cc1cc(N2CCN(C)CC2)nc2ccc(NC(S)=NCCN3CCc4ccccc4C3)cc12
IC50 [6]: 4.64 µM (active) | IC50 [7]: 4.81 µM (active) | EC50 [8]: 0.683 µM (active) | EC50 [9]: > 60 µM (not active) | CC50 [10]: 15.9 µM (active) | AC50 [11]: 20.4 µM (active)

COc1ccc2c(=O)c(-c3ccccc3)c(C)oc2c1
AC50 [12]: 10 µM (inconclusive) | AC50 [13]: inconclusive

O=C(COc1ccc(Cl)cc1Cl)Nc1ccccn1
AC50 [14]: 2.19 µM (active) | AC50 [15]: 18.4 µM (active)

CC(=O)c1sc2nc(CSc3nnnn3-c3ccccc3)[nH]c(=O)c2c1C
IC50 [16]: > 49.8 µM (not active) | IC50 [17]: 6.5 µM (active) | IC50 [18]: 27.9 µM (active) | IC50 [19]: 1.71 µM (active) | IC50 [20]: 50 µM (inactive)
